Data on 47 molecules can be found in US6984645B2, “Dual inhibitors of adipocyte fatty acid binding protein and keratinocyte fatty acid binding protein” (Bristol-Myers Squibb Company, priority 2001, dated 2006).

As usually defined, the melting point is the temperature, or range, at which the solid turns liquid.

Counter-ions that a name gives are not always drawn.

Molecule `O=C(O)c1cccc(OCc2ccccc2Cl)c1OCc1ccc[n+]([O-])c1` had a melting point of 177 to 179 °C. Then `O=C(O)c1cccc(OCc2ccccc2Cl)c1OCc1nc2ccccc2[nH]1` (as salt: hydrochloride) [Example 371, 2-(1H-Benzimidazol-2-ylmethoxy)-3-[(2-chlorophenyl)methoxyl]benzoic acid, monohydrochloride], with 197 to 201 °C; and `CO/N=C(/C(=O)O)c1cccc(OCc2ccccc2Cl)c1OCc1ccccc1Cl` (single isomer, unassigned) [Example 340, (E or Z)-2,3-Bis[(2-chlorophenyl)methoxy]-α-(methoxyimino)benzeneacetic acid], with 140 to 141 °C.

`CO/N=C(/C(=O)O)c1cccc(OCc2ccccc2Cl)c1OCc1ccccc1Cl` (single isomer, unassigned) [Example 341, (E or Z)-2,3-Bis[(2-chlorophenyl)methoxy]-α-(methoxyimino)benzeneacetic acid] gave a melting point of 97 to 99 °C. `O=C(O)/C=C/c1cccc(OCc2ccccc2Cl)c1OCc1ccccc1Cl` [Example 4, 2-(E)-3-[2,3-Bis[(2-chlorophenyl)methoxy]phenyl]-2-propenoic acid] came in with a melting point of 187 to 189 °C.

`O=C(O)Cc1cccc(OCc2ccccc2Cl)c1OCc1ccccc1Cl` [Example 5, 2,3-Bis[(2-chlorophenyl)methoxy]benzeneacetic acid] displayed a melting point of 105 to 107 °C. Consider `O=C(O)C(Cc1cccc(OCc2ccccc2Cl)c1OCc1ccccc1Cl)C(=O)O` [Example 7, [[2,3-Bis[(2-chlorophenyl)methoxy]phenyl]methyl]propanedioic acid], for which the melting point was 148 to 150 °C (dec.).

For `O=C(O)c1cccc(COc2ccccc2Cl)c1COc1ccccc1Cl` [Example 9, 2,3-Bis[(2-chlorophenoxy)methyl]benzoic acid], the melting point was 172 to 174 °C. With `O=C(O)c1cccc(COc2ccccc2Cl)c1OCc1ccccc1Cl` [Example 10, 3-[(2-Chlorophenoxy)methyl]-2-[(2-chlorophenyl)methoxy]benzoic acid], the melting point fell in the range of 172 to 174 °C.

As for `O=C(O)C(F)c1cccc(OCc2ccccc2Cl)c1OCc1ccccc1Cl` (stereo not drawn) [Example 24, 2,3-Bis[(2-chlorophenyl)methoxy]-α-fluorobenzeneacetic acid], the melting point was in the range of 92 to 94 °C.

As to `O=C(O)C(=O)c1cccc(OCc2ccccc2Cl)c1OCc1ccccc1Cl` [Example 26, 2,3-Bis[(2-chlorophenyl)methoxy]-α-oxobenzeneacetic acid], the melting point lay within 116 to 118 °C.

Consider `O=C(O)C(F)(F)c1cccc(OCc2ccccc2Cl)c1OCc1ccccc1Cl` [Example 27, 2,3-Bis[(2-chlorophenyl)methoxy]-α,α-difluorobenzeneacetic acid], for which the melting point lay within 113 to 115 °C. `O=C(O)C(O)c1cccc(OCc2ccccc2Cl)c1OCc1ccncc1` (stereo not drawn) [Example 344, 3-[(2-Chlorophenyl)methoxy]-α-hydroxy-2-(4-pyridinylmethoxy)benzeneacetic acid]: the melting point lay in the range of 181 to 183 °C. In the case of `O=C(O)c1cccc(OCc2cc(Cl)cc(Cl)c2)c1OCc1cc(Cl)cc(Cl)c1` [Example 345, 2,3-Bis[(3,5-dichlorophenyl)methoxy]benzoic acid] it was 219 to 220 °C; in that of `O=C(O)c1cccc(OCc2ccc(Cl)cc2Cl)c1OCc1ccc(Cl)cc1Cl` [Example 346, 2,3-Bis[(2,4-dichlorophenyl)methoxy]benzoic acid], 168 to 169 °C; in that of `O=C(O)c1cccc(OCc2ccccc2Cl)c1OCc1ccccc1Cl` [Example 347, 2,3-Bis[(2-chlorophenyl)methoxy]benzoic acid], 156 to 157 °C.

For `O=C(O)c1cccc(OCc2cccc(Cl)c2)c1OCc1cccc(Cl)c1` [Example 348, 2,3-Bis[(3-chlorophenyl)methoxy]benzoic acid], the melting point lay within 126 to 127 °C.

The molecule `O=C(O)c1cccc(OCc2ccc(Cl)cc2)c1OCc1ccc(Cl)cc1` [Example 349, 2,3-Bis[(4-chlorophenyl)methoxy]benzoic acid] returned a melting point of 174 to 175 °C.

`O=C(O)c1cccc(OCc2cc(C(F)(F)F)cc(C(F)(F)F)c2)c1OCc1cc(C(F)(F)F)cc(C(F)(F)F)c1` [Example 350, 2,3-Bis[[3,5-bis(trifluoromethyl)phenyl]methoxy]benzoic acid] registered a melting point of 156 to 158 °C. `Cc1ccc(C)c(COc2cccc(C(=O)O)c2OCc2cc(C)ccc2C)c1` [Example 351, 2,3-Bis[(2,5-dimethylphenyl)methoxy]benzoic acid] returned a melting point of 114 to 116 °C.

With `Cc1cc(C)cc(COc2cccc(C(=O)O)c2OCc2cc(C)cc(C)c2)c1` [Example 352], the melting point lay in the range of 117 to 118 °C.

In turn, `O=C(O)c1cccc(OCc2ccccc2)c1OCc1ccc(Cl)cc1Cl` [Example 353, 2-[(2,4-Dichlorophenyl)methoxy]-3-(phenylmethoxy)benzoic acid] had a melting point of 140 to 142 °C. Then `O=C(O)c1cccc(OCc2ccc(Cl)cc2Cl)c1OCc1ccccc1` [Example 354, 3-[(2,4-Dichlorophenyl)methoxy]-2-(phenylmethoxy)benzoic acid], with 151 to 153 °C. In the case of `O=C(O)c1cc(Br)cc(OCc2ccccc2Cl)c1OCc1ccccc1Cl` [Example 355, 5-Bromo-2,3-bis[(2-chlorophenyl)methoxy]benzoic acid] it was 186 to 187 °C. Molecule `O=C(O)c1cc(Br)cc(OCc2ccccc2)c1OCc1ccccc1` [Example 356, 5-Bromo-2,3-bis(phenylmethoxy)benzoic acid] had a melting point of 151 to 153 °C. For `Cc1cccc(COc2c(OCc3ccccc3Cl)cccc2C(=O)O)c1` [Example 357, 3-[(2-Chlorophenyl)methoxy]-2-[(3-methylphenyl)methoxy]benzoic acid], the melting point was 107 to 109 °C. In the case of `O=C(O)c1cccc(OCc2ccccc2Cl)c1OCc1cccc(F)c1` [Example 358, 3-[(2-Chlorophenyl)methoxy]-2-[(3-fluorophenyl)methoxy]benzoic acid] it was 152 to 154 °C; in that of `O=C(O)c1cccc(OCc2ccccc2Cl)c1OCc1cccc(C(F)(F)F)c1` [Example 359], 128 to 129 °C; in that of `O=C(O)c1cccc(OCc2ccccc2Cl)c1OCc1ccc(OCc2ccccc2)cc1` [Example 360, 3-[(2-Chlorophenyl)methoxy]-2-[[4-(phenylmethoxy)phenyl]methoxy]benzoic acid], 107 to 109 °C. Take `Cc1cc(C)cc(COc2c(OCc3ccccc3Cl)cccc2C(=O)O)c1` [Example 361, 3-[(2-Chlorophenyl)methoxy]-2-[(3,5-dimethylphenyl)methoxy]benzoic acid]: the melting point fell in the range of 122 to 123 °C. In the case of `COc1ccccc1COc1c(OCc2ccccc2Cl)cccc1C(=O)O` [Example 362, 3-[(2-Chlorophenyl)methoxy]-2-[(2-methoxyphenyl)methoxy]benzoic acid] it was 110 to 112 °C; in that of `O=C(O)c1cccc(OCc2ccccc2Cl)c1OCc1ccccn1` [Example 363], 168 to 170 °C. The molecule `O=C(O)c1cccc(OCc2ccccc2Cl)c1OCc1ccncc1` [Example 364] displayed a melting point of 157 to 159 °C. Take `O=C(O)c1cccc(OCc2ccccc2Cl)c1OCc1cccnc1` [Example 365]: the melting point was in the range of 181 to 182 °C. In the case of `O=C(O)c1cccc(OCc2ccccc2Cl)c1OCc1cccnc1Cl` [Example 366, 3-[(2-Chlorophenyl)methoxy]-2-[(2-chloro-3-pyridinyl)methoxy)benzoic acid] it was 183 to 184 °C. `O=C(O)c1cccc(OCc2ccccc2Cl)c1OCc1cccc[n+]1[O-]` [Example 367, 3-[(2-Chlorophenyl)methoxy]-2-[(1-oxido-2-pyridinyl)methoxy]benzoic acid]: the melting point lay within 189 to 191 °C. The molecule `O=C(O)c1cccc(OCc2ccccc2Cl)c1OCc1cc[n+]([O-])cc1` [Example 369, 3-[(2-Chlorophenyl)methoxy]-2-[(1-oxido-4-pyridinyl)methoxy]benzoic acid] showed a melting point of 186 to 188 °C. Then `O=C(O)c1cccc(OCc2ccccc2Cl)c1OCc1ccc[n+]([O-])c1Cl` [Example 370, 3-[(2-Chlorophenyl)methoxy]-2-[(2-chloro-1-oxido-3-pyridinyl)methoxy]benzoic acid], with 145 to 148 °C. Molecule `Cn1c(COc2c(OCc3ccccc3Cl)cccc2C(=O)O)nc2ccccc21` [Example 372] yielded a melting point of 179 to 182 °C. `O=C(O)c1c(Br)ccc(OCc2ccccc2Cl)c1OCc1ccccc1Cl` [Example 373, 6-Bromo-2,3-bis[(2-chlorophenyl)methoxy]benzoic acid] had a melting point of 156 to 158 °C.

Consider `O=C(O)c1c(Br)ccc(OCc2ccccc2)c1OCc1ccccc1` [Example 374, 6-Bromo-2,3-bis(phenylmethoxy)benzoic acid], for which the melting point lay within 164 to 166 °C. `O=C(Nc1c(OCc2ccccc2)cccc1C(=O)O)c1ccccc1` [Example 375, 2-(Benzoylamino)-3-(phenylmethoxy)benzoic acid] registered a melting point of 167 to 168 °C. `O=C(Nc1c(OCc2ccccc2)cccc1C(=O)O)c1ccc(Cl)cc1Cl` [Example 381, 2-[(2,4-Dichlorobenzoyl)amino]-3-(phenylmethoxy)benzoic acid] gave a melting point of 208 to 210 °C. In the case of `O=C(Nc1c(OCc2ccccc2)cccc1C(=O)O)c1cc(Cl)cc(Cl)c1` [Example 382, 2-[(3,5-Dichlorobenzoyl)amino]-3-(phenylmethoxy)benzoic acid] it was 202 to 204 °C; in that of `O=C(Nc1c(OCc2c(Cl)cccc2Cl)cccc1C(=O)O)c1ccccc1` [Example 383], 145 to 147 °C; in that of `O=C(Nc1c(OCc2cc(Cl)ccc2Cl)cccc1C(=O)O)c1ccccc1` [Example 384], 187 to 189 °C. In the case of `O=C(Nc1c(OCc2ccc(Cl)cc2Cl)cccc1C(=O)O)c1ccccc1` [Example 387, 2-(Benzoylamino)-3-[(2,4-dichlorophenyl)methoxy]benzoic acid] it was 182 to 184 °C.
